From US7223836B2, “Peptides for chlamydophila pneumoniae vaccine and diagnosis” (The United States of America as represented by the …, priority 2001, dated 2007)
No end group written: not given here.

Tests used:
8A6 mAb = experiment: competitive inhibition ELISA: peptide blocks 8A6 mAb binding to sonicated C. pneumoniae; parameters: species or system murine
Method: To perform these experiments, an ELISA was utilized in which mAb and inhibitor (phage) were premixed, incubated for 2 hours, and then plated onto the microtiter plates with renographin purified, sonicated whole-cell C. pneumoniae.
Several methods were used to determine binding specificity. […] The best synthetic peptides were selected by competing the peptide against the respective native C. pneumoniae lysate for binding to the target mAb.

[1] = immunization of naive mice, antiserum ELISA; type: in vivo; conditions: intraperitoneal, 50–200 μg with aluminum hydroxide, boosters
Method: (§1) In order to identify immunologically reactive C. pneumoniae peptides that can be used in the development of a C. pneumoniae vaccine, naive mice and rabbits were immunized with various C. pneumoniae polypeptides. An exemplary protocol is as follows: 50–200 μg of CP-8A6-B1 (SEQ ID NO:4) was mixed with 1 mg of aluminum hydroxide, a less inflammatory alternative to Freund's adjuvant. Rabbits were injected subcutaneously at multiple sites with 0.05 ml of inoculum, whereas mice were immunized intraperitoneally with no more than 0.2 ml of inoculum. At least 2–3 weeks following the initial immunization, the mice and rabbits were given their first booster immunizations. Mice were given subsequent boosters at two week intervals for up to 6 total injections, whereas rabbits were typically injected every 4–6 weeks. […] Briefly, after the antigen was immobilized, the bound peptide was tested with serial dilutions of the mouse and rabbit antisera and was detected with a goat anti-mouse IgG or a goat anti-rabbit IgG heavy plus light chain antibody horseradish peroxidase conjugate (Pierce Scientific). […] Absorbance at 490 nm was recorded with an enzyme immunoassay reader (Bio-Tek Instruments, Burlington, Vt.). […] Wells with optical density readings greater than 0.2 units at 490 nm were indicative of an immunologically reactive antiserum.

[2] = system: 8A6 mAb binding to fixed, cultured C. pneumoniae cells (RBs and EBs); experiment: competitive inhibition indirect IFA; parameters: species or system murine; conditions: serially diluted peptide
Method: The indirect immunofluorescence assay (IFA) was performed as described previously (Storey et al., 1993 and Wong Skelton Chan, 1992) with modifications. Antibiotic-free Buffalo African Green monkey cells were seeded into 1 dram shell vials or 24-well tissue culture trays containing 12 mm cover slips at a density of 3.0×10^5 cells/mL. Cells were incubated for 24 hours at 37° C. and checked for confluency. Cell cultures were infected by the addition of C. pneumoniae followed by centrifugation at 3000× g. Inclusions were counted using the Pathfinder® Chlamydia Culture Confirmation System staining kit (Sanofi Diagnostics Pasteur, Redmond, Wash.) as per manufacturer specifications. The 8A6 mAb was used as previously described (Wong et al. 1992) for detection of C. pneumoniae inclusions and to determine species specificity.
A competitive inhibition IFA assay was performed using the previously described IFA assay with modification. […]
Due to the subjective nature of IFA tests, it is difficult to standardize a competitive inhibition to obtain fluorescence measures. Instead, slides were scored from 1 to 4 such that a value of 3+ equals the endpoint titer and changes due to inhibition were scored empirically from comparison with control slides. […]

[3] = immunization of naive rabbits, antiserum ELISA; type: in vivo; conditions: subcutaneous, 50–200 μg with aluminum hydroxide, boosters
Method: as §1

[4] = competitive inhibition ELISA, binding of 8A6 mAb to sonicated C. pneumoniae fixed to solid phase

With LRNCEQDFFTLN [CP-8A6-A3, LRNCEQDFFTLN] the “IC50 (50% Inhibiting Concentration)” value (8A6 mAb; [4]) was 18.54 µg/mL and the percent inhibition (8A6 mAb; [4]) was 95.1%.
In the case of “PNEPDDLALMRIIRI [CP-8A6-B1, PNEPDDLALMRIIRI]”, the “immune response (antiserum reactivity by ELISA)” value [1] was “produced an immune response”, the percent inhibition (8A6 mAb; at 50 μg/mL of peptide) was 95.44% and the “IC50 (50% Inhibiting Concentration)” value (8A6 mAb; [4]) was 2.93 µg/mL. For the same sequence, the percent inhibition (8A6 mAb; [4]) was 95.44%, the “peptide concentration down to which any observable binding of 8A6 mAb was completely blocked” value [2] was 100 ng/mL and the “immune response (antiserum reactivity by ELISA)” value [3] was “produced an immune response”.
With HDEGRQIIQFEE [CP-8A6-A2, HDEGRQIIQFEE] the “IC50 (50% Inhibiting Concentration)” value (8A6 mAb; [4]) was 18.29 µg/mL and the percent inhibition (8A6 mAb; [4]) was 83.5%.
For AFAQAPTHQLSL [CP-8A6-B3, AFAQAPTHQLSL], the “IC50 (50% Inhibiting Concentration)” value (8A6 mAb; [4]) was 6.46 µg/mL and the percent inhibition (8A6 mAb; [4]) was 67.8%.
For “ESNPVDGAHLSL [CP-8A6-B10A, ESNPVDGAHLSL]”, the “IC50 (50% Inhibiting Concentration)” value (8A6 mAb; [4]) was 18.90 µg/mL and the percent inhibition (8A6 mAb; [4]) was 57.4%.
With RRLGRQTYDNES [CP-8A6-A1, RRLGRQTYDNES] the “IC50 (50% Inhibiting Concentration)” value (8A6 mAb; [4]) was 4.82 µg/mL and the percent inhibition (8A6 mAb; [4]) was 84.5%.
